According to patent publication US10828309B2, “Dermocosmetic or pharmaceutical use of a composition comprising at least one inhibitor of some chemoattractant cytokines” (GREENPHARMA, priority 2014, dated 2020):
Read-outs that look alike come from different tables or passages of the source.

Key:
CCL17 = molecular target: T1, CCL17 (Homo sapiens, UniProt Q92583); assay: Interaction affinity with CCL17 by fluorescence extinction of tryptophan residues; assay type: binding; details: CCL17 1.5 μm, excitation 285 nm
T1 sequence (Q92583 24-94): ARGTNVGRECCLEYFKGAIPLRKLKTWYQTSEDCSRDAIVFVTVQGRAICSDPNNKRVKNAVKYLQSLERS
Description: Briefly: the fluorescence measurements are carried out on a spectrofluorimeter Fluorolog 3 (JobinYvon/Spex) in a quartz cuvette. […] The measurements are carried out at 20° C. and the solutions are stirred using a magnetic stir bar. The recorded emission spectra are corrected by subtraction of the emission spectrum of the compound to be tested alone.

CCL17 chemokine = molecular target: T2, CCL17 chemokine (Homo sapiens, UniProt Q92583); assay: Inhibition of calcium response induced by CCL17 in HEK 293 cells expressing CCR4 (Indo-1); assay type: cell-based
T2 construct: purchased; host or cells: HEK 293 cells stably transfected with EGFP-CCR4, transiently transfected with Gqi5
T2 sequence (Q92583 24-94): T1 sequence (Q92583 24-94)
Description: HEK 293 cells (ATCC) are cultured in minimal essential medium MEM (Invitrogen) in the presence of 10% of fetal calf serum (Gibco-BRL), 100 U/mL of penicillin (Invitrogen), 100 μg/mL of streptomycin (Invitrogen) and 2 mM of L-glutamine (Invitrogen) at 37° C. in water-saturated atmosphere and containing 5% of 002. […] The clones are selected after having been characterized by fluorescence microscopy and cytometric analysis by FACS (fluorescence assisted cell sorting).
(§1) In order to enable an easy recording of the cell responses associated to the CCR4 receptor, we modify its natural coupling to the inhibition of AMPc production to a coupling to the phospholipase C which enables calcium measurements. We produce for this purpose the chimeric protein Gqi5 by directed mutagenesis of the 5 las amino acids of Gq replaced by their homologues of Gi. The cells expressing the CCR4 receptor are transfected with the plasmid pCNA3.1 in which the cDNA encoding Gqi5 has been incorporated. The recordings of calcic responses are performed the day after de transfection.
(§2) The cells are loaded with a fluorescent calcium indicator, INDO-1, according to the protocol provided by the provider (Molecular probes), distributed in microplate wells and placed in a fluorescence reader-pipettor (FlexStation, Molecular devices).
Measure points are recorded every 5 s for 150 s for each well. The molecules are tested in the presence of 5 nM of CCL17 chemokine (commercial).
The molecules are tested at the concentration of 10 μm. The concentration of CCL17 is 5 nM.

CCL22 = molecular target: T3, CCL22 (Homo sapiens, UniProt O00626); assay: Inhibition of calcium response induced by CCL22 in cells expressing CCR4 (Indo-1); assay type: cell-based; details: molecules at 10 μm, read-out: Inhibition of calcium responses induced by CCL22 (%)
T3 sequence (O00626 25-93): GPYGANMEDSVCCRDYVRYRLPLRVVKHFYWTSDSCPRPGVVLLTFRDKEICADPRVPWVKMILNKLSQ
Description: In order to enable an easy recording of the responses associated to the CCR4 receptor, the cDNA which allows its expression is cloned in the plasmid pIRES (ClonTech) in fusion with the GFP protein, according to Vollmer et al. (1999), which enables to easily measure the expression of the chimeric EGFP-CCR4 receptor. HEK 293 cells (ATCC) are cultured in minimal essential medium MEM (Invitrogen) in the presence of 10% of fetal calf serum (Gibco-BRL), 100 U/mL of penicillin (Invitrogen), 100 μg/mL of streptomycin (Invitrogen) and 2 mM of L-glutamine (Invitrogen) at 37° C. in water-saturated atmosphere and containing 5% of 002. The cells are transfected according to the calcium phosphate precipitate method of Chen ant Okayama, 1986, and the cells having incorporated the expression plasmid are selected with 600 μg/mL of geneticin G-418 (PAA) for 5 weeks. The clones are selected after having been characterized by fluorescence microscopy and cytometric analysis by FACS (fluorescence assisted cell sorting).
as §1, §2
Intracellular calcium elevation is measured by fluorescence intensity change at 401 and 475 nm (excitation 355 nm). Measure points are recorded every 5 s for 150 s for each well. The molecules are tested in the presence of 5 nM of CCL17 chemokine (commercial).
The response develops in a few seconds and fades with time for reaching the return in approximately 2 minutes for a CCL17 chemokine concentration of 5 to 10 nM in HEK 293 cells expressing CCR4. If the molecules to be tested are preincubated with chemokine [CK+N] and if the mixture is added to the cells, we observe a strong decrease in the amplitude of the response if the molecule to be tested is a neutralizing ligand of the chemokine. Conversely, when the neutralizing ligand is preincubated with the cells expressing the receptor [CKR+N] we observe a much smaller decrease of the amplitude of the response.
The analysis of the molecules selectivity is carried out by measuring the inhibition (at the concentration of 10 μm) of the response evoked by other chemokines (5 μm) on their respective receptors. Thus, in FIG. 3, the molecules have been tested on the pairs CCL2/CCR2, CCL3/CCR5, CCL17/CCR4, CCL22/CCR4, […], CXCL11/CXCR3, CXCL12/CXCR4.

Hacat cells [1] = assay: Human keratinocytes migration assay (in vitro wound-healing test in a cell monolayer); assay type: cell-based
Description: It is actually known that, in chronic pathologies an important cell migration may promote de formation of pruritus, one of the signs of dermatosis. The immortalized human keratinocytes obtained from the DKFZ (Heidelberg, Germany) are cultivated in Dulbecco medium modified by Eagle (DMEM, Invitrogen) supplemented with 10% of fetal calf serum (Gibco-BRL) and 100 U/ml of penicillin (Invitrogen), 100 μg/ml of streptomycin (Invitrogen) and 2 mM of L-glutamine (Invitrogen) at 37° C. and 5% of CO2. The wells of a culture plate of 24 well are inoculated with 200,000 cells and the culture is maintained until formation of a confluent cell monolayer. The cell monolayer is then damaged by performing a linear gap (scratch) using a sterile pipette head of 0.1-10 μL. […] The effect of the molecules alone is also recorded in different wells. In order to block cell proliferation, each well receives a dose of 1 μg/ml of mitomycin (Sigma-Aldrich). The culture plates are arranged in the IncuCyte apparatus (Essence Bioscience) which records the growth on the cell monolayer by transmitted imaging in cell culture conditions (37° C., 5% CO2, water-saturated atmosphere) for 72 h. Phase-contrast images are collected every 2 hours. Healing is defined (quantified) as the ratio of the width of the scar at time t and time 0. The experiment is repeated three times per condition.

Hacat cells [2] = assay: Cytotoxicity measurement, WST-1 metabolic activity test; assay type: cell-based, human; details: 0.3 μM, 10 μM or 30 μM, 72 hours
human monocytes = assay: Cytotoxicity on human monocytes, Alamar blue assay; assay type: cell-based; details: human monocytes with LPS, 5 concentrations, 24 hours
Description: Monocytes are inoculated in plates of 96 wells (approx. 5000 cells/well of 200 μl) for the Alamar blue assay.
After 24 hours, Alamar blue fluorescence is measured.

COX-1 = molecular target: T4, COX-1 (Homo sapiens, UniProt P23219); assay: COX-1 activity by PGE2 production in monocytes treated with arachidonic acid; assay type: cell-based; details: up to 250 μM
T4 construct: endogenous in cells; host or cells: human monocytes in culture
Description: (§3) Determination of the Activity of COX 1 and COX 2 Cyclooxygenases on Human Monocytes in Culture.
COX-1: the release of COX-1 mediated prostaglandin E2 (PGE2) is determined by the arachidonic acid method. […] After 15 minutes of stimulation, the activity of COX-1 is measured by determination of the production of PGE2. Aspirin (ASS) a known inhibitor of COX-1 is used as a control inhibitor.

COX-2 = molecular target: T5, COX-2 (Homo sapiens, UniProt P35354); assay: COX-2 activity by PGE2 production in LPS-induced monocytes; assay type: cell-based; details: LPS-treated monocytes
T5 construct: endogenous in cells; host or cells: human monocytes in culture, LPS-induced
T5 sequence (P35354 18-604): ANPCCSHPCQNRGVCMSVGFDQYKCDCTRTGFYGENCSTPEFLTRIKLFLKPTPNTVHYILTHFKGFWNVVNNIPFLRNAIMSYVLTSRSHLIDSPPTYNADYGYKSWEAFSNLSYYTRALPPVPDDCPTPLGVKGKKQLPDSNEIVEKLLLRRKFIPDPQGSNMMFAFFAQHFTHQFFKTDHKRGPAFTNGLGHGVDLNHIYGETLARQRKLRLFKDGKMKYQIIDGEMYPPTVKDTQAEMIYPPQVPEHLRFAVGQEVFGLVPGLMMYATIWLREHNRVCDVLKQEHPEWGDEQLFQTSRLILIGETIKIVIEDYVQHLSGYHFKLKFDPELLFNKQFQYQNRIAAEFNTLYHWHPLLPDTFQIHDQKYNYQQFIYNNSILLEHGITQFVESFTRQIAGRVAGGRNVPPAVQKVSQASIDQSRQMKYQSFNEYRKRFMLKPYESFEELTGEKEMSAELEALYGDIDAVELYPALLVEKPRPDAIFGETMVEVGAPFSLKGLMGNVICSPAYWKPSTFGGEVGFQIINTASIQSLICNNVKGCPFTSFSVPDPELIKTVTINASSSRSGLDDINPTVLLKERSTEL
Description: as §3
COX-2: monocytes are incubated with LPS (10 U/ml) for 24 h in order to induce COX-2 synthesis. […] The arachidonic acid is added 15 minutes after the compounds to be tested, and 15 minutes later the production of PGE2 is determined.

[3] = HEK293, molecules at 10 μm, CCL17 5 nM, HEK 293 cells expressing CCR4, read-out: Inhibition of calcium responses induced by CCL17 (%)
[4] = HEK293, read-out: Inhibition of calcium responses induced by CCL17 (%)

| Compound | inhibition at 10 µM (CCL17 chemokine; [3]) [%] | inhibition at 10 µM (CCL22) [%] | inhibition at 10 µM (CCL17 chemokine; [4]) [%] | other results |
| --- | --- | --- | --- | --- |
| COc1cc2nc(N3CCC(N4CCCCC4)CC3)nc(NC3CCCCCC3)c2cc1OC [C-021, reference compound] |  |  |  | Fluorescence extinction of CCL17 (intrinsic tryptophan fluorescence) (CCL17): no signal |
| Cn1c(=O)c2c(ncn2C)n(C)c1=O [Caffeine, reference compound] | 0 | 0 |  |  |
| Cc1nc2c(=O)[nH]c(=O)[nH]c2[nH]1 [GPN062] | 0 | 0 |  |  |
| CC(C)=CCn1cnc2c1c(=O)n(C)c(=O)n2C [GPN279, 3,7-dihydro-1,3-dimethyl-7-(3-methyl-2-butenyl)-1H-purin-2,6-dione] |  | 0 |  | Inhibition of calcium responses induced by CCL17 (%) (CCL17 chemokine; molecules at 10 μm, CCL17 5 nM, HEK 293 cells expressing CCR4): 42 ± 4%; Fluorescence extinction of CCL17 (intrinsic tryptophan fluorescence) (CCL17): fluorescence extinction of CCL17 is observed; Effect on cell migration accelerated by the CCL17 chemokine (Hacat cells [1]; Hacat monolayer, CCL17 100 ng/ml, 72 hours): abolished; Dose-response relationship on Hacat cell monolayer healing (Hacat cells [1]; with CCL17, 0.3 μM, 1 μM, 10 μM): its effect depends on the dose; Effect of the molecule alone on Hacat cell monolayer healing (Hacat cells [1]; without CCL17): does not have an effect; Activity of the mitochondrial enzyme (WST-1, absorbance 450 nm) (Hacat cells [2]): does not affect enzymatic activity; Cytotoxicity by Alamar blue (human monocytes): not cytotoxic; COX-1 inhibition (PGE2 production) (COX-1): not a COX-1 inhibitor; Effect on COX-2 activity (PGE2 production) (COX-2; beyond 100 μM): slight increase in COX-2 activity; Effect on COX-2 activity (PGE2 production) (COX-2; up to the dose of 100 μM): no effect |
| CCCCn1cnc2c1c(=O)n(C)c(=O)n2C [GPS008658, 3,7-dihydro-7-butyl-1,3-dimethyl-1H-purine-2,6-dione] |  | 32 ± 8 | 40 ± 9 |  |
| CC(C)Cn1cnc2c1c(=O)n(C)c(=O)n2C [GPS008659, 3,7-dihydro-7-isobutyl-1,3-dimethyl-1H-purine-2,6-dione] |  | 5 ± 5 | 36 ± 7 |  |
| C=CCn1cnc2c1c(=O)n(C)c(=O)n2C [GPS008660, 3,7-dihydro-7-allyl-1,3-dimethyl-1H-purine-2,6-dione] |  | 0 | 19 ± 5 |  |
| CCCCC(CC)Cn1cnc2c1c(=O)n(C)c(=O)n2C (stereo not shown) [GPS008661, 3,7-dihydro-7-(2-ethylhexyl)-1,3-dimethyl-1H-purine-2,6-dione] | 0 | 0 |  |  |
| CC(C)Cn1c(=O)n(C)c(=O)c2nc[nH]c21 [IBMX, reference compound] | 0 | 0 |  |  |
| Cn1c(=O)c2[nH]cnc2n(C)c1=O [Theophylline, reference compound] |  | 0 | 0 |  |
